One test concerns the target T1, hT1R1/hT1R3 (Homo sapiens, UniProt Q7RTX1).
T1 construct: expressed in transfected cells; host or cells: HEK293 derivative stably expressing Gα15, clone I-17, mifepristone-induced
T1 sequence (Q7RTX1 21-841): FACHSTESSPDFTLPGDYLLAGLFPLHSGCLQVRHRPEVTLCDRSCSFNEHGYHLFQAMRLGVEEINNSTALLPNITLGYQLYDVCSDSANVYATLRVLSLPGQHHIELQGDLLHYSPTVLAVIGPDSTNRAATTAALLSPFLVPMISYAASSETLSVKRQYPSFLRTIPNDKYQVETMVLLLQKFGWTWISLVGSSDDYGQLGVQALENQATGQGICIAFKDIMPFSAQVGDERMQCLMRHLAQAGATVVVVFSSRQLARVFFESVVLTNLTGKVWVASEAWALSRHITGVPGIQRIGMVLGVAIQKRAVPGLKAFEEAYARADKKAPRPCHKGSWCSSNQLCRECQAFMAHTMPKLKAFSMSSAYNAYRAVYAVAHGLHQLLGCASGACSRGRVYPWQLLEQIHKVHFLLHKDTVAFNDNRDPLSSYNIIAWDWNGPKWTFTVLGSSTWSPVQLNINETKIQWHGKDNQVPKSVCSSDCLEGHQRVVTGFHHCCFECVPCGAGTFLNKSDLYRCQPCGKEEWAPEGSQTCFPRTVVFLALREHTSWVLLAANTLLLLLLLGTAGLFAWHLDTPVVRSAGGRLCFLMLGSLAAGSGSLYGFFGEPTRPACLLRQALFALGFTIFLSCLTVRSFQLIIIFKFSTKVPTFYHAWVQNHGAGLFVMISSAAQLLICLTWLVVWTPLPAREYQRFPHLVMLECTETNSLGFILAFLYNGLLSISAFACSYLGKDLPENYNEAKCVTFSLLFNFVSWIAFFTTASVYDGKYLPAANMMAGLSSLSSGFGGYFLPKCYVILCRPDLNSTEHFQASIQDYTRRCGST
T1 sequence (Q7RTX0 21-852 partner): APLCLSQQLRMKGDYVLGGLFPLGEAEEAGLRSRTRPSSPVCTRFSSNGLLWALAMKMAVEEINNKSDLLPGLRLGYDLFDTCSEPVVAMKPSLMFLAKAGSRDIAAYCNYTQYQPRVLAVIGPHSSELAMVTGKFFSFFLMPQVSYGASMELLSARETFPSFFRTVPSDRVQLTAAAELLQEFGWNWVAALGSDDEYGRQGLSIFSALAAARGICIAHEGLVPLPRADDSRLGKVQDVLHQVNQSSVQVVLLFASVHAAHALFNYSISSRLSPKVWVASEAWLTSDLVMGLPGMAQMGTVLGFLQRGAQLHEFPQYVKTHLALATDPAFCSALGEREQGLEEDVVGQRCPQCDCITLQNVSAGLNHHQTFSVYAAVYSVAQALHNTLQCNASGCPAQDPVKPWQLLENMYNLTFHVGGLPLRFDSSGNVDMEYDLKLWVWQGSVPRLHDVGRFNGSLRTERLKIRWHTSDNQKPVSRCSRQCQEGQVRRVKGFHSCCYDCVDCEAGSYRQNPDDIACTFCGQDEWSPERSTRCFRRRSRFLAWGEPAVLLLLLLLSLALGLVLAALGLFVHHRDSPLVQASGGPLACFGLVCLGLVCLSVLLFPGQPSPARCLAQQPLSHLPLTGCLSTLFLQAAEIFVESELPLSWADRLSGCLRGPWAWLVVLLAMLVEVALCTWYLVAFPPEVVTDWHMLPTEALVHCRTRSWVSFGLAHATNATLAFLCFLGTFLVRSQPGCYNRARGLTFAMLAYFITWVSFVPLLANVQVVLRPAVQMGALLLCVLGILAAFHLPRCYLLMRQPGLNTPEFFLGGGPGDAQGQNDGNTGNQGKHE
Put plainly: In vitro hT1R1/hT1R3 enhancement assay (FLIPR): shift of the monosodium glutamate EC50 (EC50R). The format is cell-based. The following applies: EC50 of monosodium glutamate without / with test compound. As for the experimental part:
An HEK293 cell line derivative (See e.g., Chandrashekar, et al., Cell (2000) 100: 703-711) which stably expresses Gα15 and hT1R1/hT1R3 under an inducible promoter (see e.g., International Publication No. WO 03/001876 A2) was used in association with identifying compounds with umami tasting properties.
Compounds were initially selected based on activity in the hT1R1/hT1R3-HEK293-Gα15 cell line. Activity was determined using an automated fluorometric imaging assay on a FLIPR instrument (Fluorometric Intensity Plate Reader, Molecular Devices, Sunnyvale, Calif.) (designated FLIPR assay). Cells from one clone (designated clone I-17) were seeded into 384-well plates (at approximately 48,000 cells per well) in a medium containing Dulbecco's modified Eagle's medium (DMEM) supplemented with GlutaMAX (Invitrogen, Carlsbad, Calif.), 10% dialyzed fetal bovine serum (Invitrogen, Carlsbad, Calif.), 100 Units/ml Penicillin G, 100 μg/ml Streptomycin (Invitrogen, Carlsbad, Calif.) and 60 pM mifepristone (to induce expression of hT1R1/hT1R3 (see e.g., International Publication No. WO 03/001876 A2).
I-17 cells were grown for 48 hours at 37° C. 1-17 cells were then loaded with the calcium dye Fluo-3AM (Molecular Probes, Eugene, Oreg.), 4 μM in a phosphate buffered saline (D-PBS) (Invitrogen, Carlsbad, Calif.), for 1.5 hours at room temperature. After replacement with 25 μl D-PBS, stimulation was performed in the FLIPR instrument and at room temperature by the addition of 25 μl D-PBS supplemented with different stimuli at concentrations corresponding to twice the desired final level.
Receptor activity was quantified by determining the maximal fluorescence increases (using a 480 nm excitation and 535 nm emission) after normalization to basal fluorescence intensity measured before stimulation. For dose-responses analysis, stimuli were presented in duplicates at 10 different concentrations ranging from 1.5 nM to 3 μM.
Activities were normalized to the response obtained with 60 mM monosodium glutamate, a concentration that elicits maximum receptor response. EC50s (concentration of compound that causes 50% activation of receptor) were determined using a non-linear regression algorithm, where the Hill slope, bottom asymptotes and top asymptotes were allow to vary. Identical results were obtained when analyzing the dose-response data using commercially available software for non-linear regression analysis such as GraphPad PRISM (San Diego, Calif.).
Experiments were also conducted to determine if test compounds can enhance the effect of monosodium glutamate on hT1R1/hT1R3 activity. In this assay, increasing concentrations of monosodium glutamate (ranging from 12 μM to 81 mM) were presented, in duplicates, in the presence or absence of a fixed concentration of the test compound. Typical compound concentrations tested were 100 μM, 30 μM, 10 μM, 3 μM, 1 μM, 0.3 μM, 0.1 μM and 0.03 μM. The relative efficacy of compounds at enhancing the receptor was determined by the calculating the magnitude of a shift in the EC50 for monosodium glutamate.
Enhancement was defined as a ratio (EC50R) corresponding to the EC50 of monosodium glutamate, determined in the absence of the test compound, divided by the EC50 of monosodium glutamate, determined in the presence of the test compound. In some embodiments, compounds have an EC50R between about 0.7 and about 100. In other embodiments, compounds have an EC50R between about 1.25 and about 75. In still other embodiments, compounds have an EC50R between about 1.50 and about 60. Assay results for compounds are disclosed in the table below.

In a further test the test system is un-induced I-17 cells. Description: FLIPR assay on un-induced I-17 cells (no receptor expression). Format: cell-based. The conditions noted are these: monosodium glutamate. As to the method: In order to determine the dependency of hT1R1/hT1R3 for the cell response to different stimuli, selected compounds were subjected to a similar analysis on I-17 cells that had not been induced for receptor expression with mifepristone (designated as un-induced I-17 cells). […] Compounds were presented to un-induced umami cells at […]—or three times the maximum stimulation used in the dose-response analysis.

With `Cc1cccc(C(=O)Nc2nc(O)c3ncn([C@@H]4O[C@H](COP(=O)(O)O)[C@@H](O)[C@H]4O)c3n2)c1` [Compound 4], the values for the EC50 ratio at hT1R1/hT1R3 (test compound 30 μM) and at hT1R1/hT1R3 (test compound 100 μM) were 1.07 and 1.19, respectively.
In the case of `O=C(COc1ccccc1)Nc1nc(O)c2ncn([C@@H]3O[C@H](COP(=O)(O)O)[C@@H](O)[C@H]3O)c2n1` [Compound 5], the EC50 ratio worked out at 1.21 at hT1R1/hT1R3 (test compound 30 μM) and 2.22 on hT1R1/hT1R3 (test compound 100 μM).
For the compound `N[C@@H](CCC(=O)O)C(=O)[O-].[Na+]` [monosodium glutamate], the “functional response in FLIPR assay” value with un-induced I-17 cells is listed as “do not show any functional response”.
With `COc1ccccc1C(=O)Nc1nc(O)c2ncn([C@@H]3O[C@H](COP(=O)(O)O)[C@@H](O)[C@H]3O)c2n1` [Compound 1], the EC50 ratio at hT1R1/hT1R3 (test compound 30 μM) is listed as 1.67; at hT1R1/hT1R3 (test compound 100 μM), 12.91.

(Values after patent US20080306076A1, “MODULATION OF CHEMOSENSORY RECEPTORS AND LIGANDS ASSOCIATED THEREWITH” (SENOMYX, INC., priority 2007, published 2008).)
